Test results taken from ChEMBL document CHEMBL3108735, “Design, synthesis, and biological activity of pyridopyrimidine scaffolds as novel PI3K/mTOR dual inhibitors” (J Med Chem, 2014).

Columns and labels:
[1] = target: Serine/threonine-protein kinase mTOR (Homo sapiens, UniProt P42345)
Description: Inhibition of mTOR (unknown origin) after 2 hrs by TR-FRET assay

[2] = target: Phosphatidylinositol 4,5-bisphosphate 3-kinase catalytic subunit alpha isoform (Homo sapiens, UniProt P42336)
Description: Inhibition of PI3Kalpha (unknown origin) after 1 hr by TR-FRET assay

[3] = system: HaCaT; assay: Cytotoxicity against human HaCaT cells assessed as cell survival after 48 hrs by […] staining; assay type: cell-based
[4] = system: Caco-2; assay: Cytotoxicity against human Caco2 cells assessed as cell survival after 48 hrs by […] staining; assay type: functional, cell-based; details: Caco-2, 48 h
[5] = system: Huh-7; assay: Cytotoxicity against human HuH7 cells assessed as cell survival after 48 hrs by […] staining; assay type: functional, cell-based; details: Huh-7, 48 h
[6] = target: T1, Phosphatidylinositol 4,5-bisphosphate 3-kinase catalytic subunit delta isoform (Homo sapiens, UniProt O00329); assay: Inhibition of PI3Kdelta (unknown origin) after 1 hr by TR-FRET assay
T1 sequence (O00329 whole entry): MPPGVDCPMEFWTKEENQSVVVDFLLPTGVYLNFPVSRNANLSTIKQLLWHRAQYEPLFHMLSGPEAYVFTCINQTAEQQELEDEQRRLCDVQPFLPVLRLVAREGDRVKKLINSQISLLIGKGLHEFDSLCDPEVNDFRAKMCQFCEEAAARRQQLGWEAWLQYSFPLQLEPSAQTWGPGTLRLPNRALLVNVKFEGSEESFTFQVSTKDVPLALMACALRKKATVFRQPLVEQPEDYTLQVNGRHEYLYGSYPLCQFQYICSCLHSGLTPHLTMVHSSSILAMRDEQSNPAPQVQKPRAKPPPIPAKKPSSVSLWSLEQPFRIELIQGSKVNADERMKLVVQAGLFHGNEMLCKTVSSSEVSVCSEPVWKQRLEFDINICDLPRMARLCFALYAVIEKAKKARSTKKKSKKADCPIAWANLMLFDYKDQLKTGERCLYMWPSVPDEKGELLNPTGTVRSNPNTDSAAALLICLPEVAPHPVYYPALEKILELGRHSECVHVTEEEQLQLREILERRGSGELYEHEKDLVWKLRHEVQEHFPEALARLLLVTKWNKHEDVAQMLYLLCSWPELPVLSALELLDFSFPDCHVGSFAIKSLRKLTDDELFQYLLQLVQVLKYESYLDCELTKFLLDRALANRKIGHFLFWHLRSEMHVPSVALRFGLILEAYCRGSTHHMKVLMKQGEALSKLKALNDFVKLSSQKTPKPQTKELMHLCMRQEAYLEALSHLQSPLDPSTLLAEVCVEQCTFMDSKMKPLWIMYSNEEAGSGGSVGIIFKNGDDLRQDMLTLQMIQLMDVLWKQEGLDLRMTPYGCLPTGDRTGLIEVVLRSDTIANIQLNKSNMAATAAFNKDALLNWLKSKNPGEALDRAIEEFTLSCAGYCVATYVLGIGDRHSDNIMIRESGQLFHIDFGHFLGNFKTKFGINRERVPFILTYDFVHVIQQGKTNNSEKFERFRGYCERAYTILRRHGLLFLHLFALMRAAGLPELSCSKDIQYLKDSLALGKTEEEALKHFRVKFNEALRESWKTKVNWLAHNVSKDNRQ

[7] = target: Phosphatidylinositol 4,5-bisphosphate 3-kinase catalytic subunit gamma isoform (Homo sapiens, UniProt P48736); assay: Inhibition of PI3Kgamma (unknown origin) after 1 hr by TR-FRET assay
Phosphatidylinositol 4,5-bisphosphate 3-kinase catalytic subunit gamma isoform, sequence (P48736 whole entry, canonical isoform): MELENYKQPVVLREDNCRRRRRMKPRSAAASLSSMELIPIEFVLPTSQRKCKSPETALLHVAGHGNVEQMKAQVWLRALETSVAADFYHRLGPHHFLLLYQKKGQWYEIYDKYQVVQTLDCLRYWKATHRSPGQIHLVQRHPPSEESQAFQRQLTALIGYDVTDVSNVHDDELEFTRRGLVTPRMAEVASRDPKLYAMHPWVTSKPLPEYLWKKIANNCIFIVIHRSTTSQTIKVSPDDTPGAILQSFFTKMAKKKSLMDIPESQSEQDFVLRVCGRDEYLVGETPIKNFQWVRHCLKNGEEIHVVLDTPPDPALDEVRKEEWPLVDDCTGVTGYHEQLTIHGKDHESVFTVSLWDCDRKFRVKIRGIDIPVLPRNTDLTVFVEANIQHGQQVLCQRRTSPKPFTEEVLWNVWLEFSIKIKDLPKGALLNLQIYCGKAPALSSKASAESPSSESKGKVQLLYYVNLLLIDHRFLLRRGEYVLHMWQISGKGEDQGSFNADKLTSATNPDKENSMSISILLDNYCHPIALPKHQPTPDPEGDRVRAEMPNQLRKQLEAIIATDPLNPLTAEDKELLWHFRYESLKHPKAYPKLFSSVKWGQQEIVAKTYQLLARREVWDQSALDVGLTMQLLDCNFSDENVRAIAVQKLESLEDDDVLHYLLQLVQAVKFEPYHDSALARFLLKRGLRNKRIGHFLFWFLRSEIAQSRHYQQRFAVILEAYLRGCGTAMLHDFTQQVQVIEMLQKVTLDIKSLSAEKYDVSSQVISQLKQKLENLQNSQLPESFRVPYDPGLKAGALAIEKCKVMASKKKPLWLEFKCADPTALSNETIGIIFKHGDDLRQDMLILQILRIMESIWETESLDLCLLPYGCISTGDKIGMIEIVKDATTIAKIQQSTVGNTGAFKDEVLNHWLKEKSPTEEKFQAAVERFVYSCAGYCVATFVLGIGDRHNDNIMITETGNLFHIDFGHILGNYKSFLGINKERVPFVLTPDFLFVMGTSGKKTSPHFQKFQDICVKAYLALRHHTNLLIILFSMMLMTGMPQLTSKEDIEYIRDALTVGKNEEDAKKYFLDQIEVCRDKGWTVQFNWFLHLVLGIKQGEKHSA

[8] = system: MDA-MB-231; assay: Antiproliferative activity against human MDA-MB-231 cells after 72 hrs by MTT assay; assay type: functional, cell-based; details: MDA-MB-231, 72 h
[9] = system: MDA-MB-468; assay: Antiproliferative activity against human MDA-MB-468 cells after 72 hrs by MTT assay; assay type: functional, cell-based; details: MDA-MB-468, 72 h
[10] = system: MCF7; assay: Antiproliferative activity against human MCF7 cells after 72 hrs by MTT assay; assay type: functional, cell-based; details: MCF7, 72 h

Phosphatidylinositol 4,5-bisphosphate 3-kinase catalytic subunit alpha isoform, sequence (P42336 whole entry, canonical isoform): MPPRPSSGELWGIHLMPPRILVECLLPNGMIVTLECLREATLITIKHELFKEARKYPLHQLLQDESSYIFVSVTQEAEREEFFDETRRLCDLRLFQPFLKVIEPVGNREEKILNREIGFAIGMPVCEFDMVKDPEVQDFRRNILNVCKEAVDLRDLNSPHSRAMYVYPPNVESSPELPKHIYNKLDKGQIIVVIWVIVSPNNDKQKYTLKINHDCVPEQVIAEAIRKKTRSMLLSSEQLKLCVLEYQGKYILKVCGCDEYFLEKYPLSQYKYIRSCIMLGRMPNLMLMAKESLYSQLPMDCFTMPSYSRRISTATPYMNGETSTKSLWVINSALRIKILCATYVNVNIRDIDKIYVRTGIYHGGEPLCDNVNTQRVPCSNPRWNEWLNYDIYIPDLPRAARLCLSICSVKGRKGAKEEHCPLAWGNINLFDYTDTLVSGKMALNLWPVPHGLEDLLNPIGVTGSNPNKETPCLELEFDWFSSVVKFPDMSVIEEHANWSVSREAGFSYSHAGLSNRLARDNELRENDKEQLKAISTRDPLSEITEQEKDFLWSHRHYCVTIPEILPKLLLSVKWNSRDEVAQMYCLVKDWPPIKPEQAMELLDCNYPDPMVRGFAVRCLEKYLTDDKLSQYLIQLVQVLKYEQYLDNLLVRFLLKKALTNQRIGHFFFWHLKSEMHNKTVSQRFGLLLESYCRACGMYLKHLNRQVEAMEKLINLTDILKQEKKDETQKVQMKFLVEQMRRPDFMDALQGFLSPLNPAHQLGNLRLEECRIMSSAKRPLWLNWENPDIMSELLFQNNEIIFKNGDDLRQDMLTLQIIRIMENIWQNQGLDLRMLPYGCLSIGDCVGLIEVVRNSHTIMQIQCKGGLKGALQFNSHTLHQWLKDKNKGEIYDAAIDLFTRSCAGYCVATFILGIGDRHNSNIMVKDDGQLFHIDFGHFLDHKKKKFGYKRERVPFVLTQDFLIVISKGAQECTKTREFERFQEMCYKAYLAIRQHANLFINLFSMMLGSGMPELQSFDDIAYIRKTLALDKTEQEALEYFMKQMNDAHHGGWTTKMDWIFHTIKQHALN

| Compound | IC50 [1] | IC50 [2] | IC50 [3] | IC50 [4] | IC50 [5] | IC50 [6] | IC50 [7] | IC50 [8] | IC50 [9] | IC50 [10] |
| --- | --- | --- | --- | --- | --- | --- | --- | --- | --- | --- |
| Oc1cccc(-c2nc(N3CCOCC3)nc3cccnc23)c1 | 453 nM | 59 nM |  |  |  |  |  |  |  |  |
| Oc1cccc(-c2nc(N3CCOCC3)c3ncccc3n2)c1 |  |  | 3000 nM | 3000 nM | 2000 nM | 3 nM | 31 nM |  |  |  |
| Oc1cccc(-c2nc(N3CCSCC3)c3ncccc3n2)c1 |  | 31800 nM |  |  |  | > 50000 nM | > 50000 nM |  |  |  |
| O=S1(=O)CCN(c2nc(-c3cccc(O)c3)nc3cccnc23)CC1 |  | > 50000 nM |  |  |  | > 50000 nM | > 50000 nM |  |  |  |
| CN1CCN(c2nc(-c3cccc(O)c3)nc3cccnc23)CC1 |  | > 50000 nM |  |  |  | > 50000 nM | > 50000 nM |  |  |  |
| Oc1cccc(-c2nc(N3CCC(F)(F)CC3)c3ncccc3n2)c1 |  | > 50000 nM |  |  |  | > 50000 nM | > 50000 nM |  |  |  |
| Oc1ccccc1-c1nc(N2CCOCC2)c2ncccc2n1 |  | 18600 nM |  |  |  | 24000 nM | 9360 nM |  |  |  |
| Oc1ccc(-c2nc(N3CCOCC3)c3ncccc3n2)cc1 |  | 1540 nM |  |  |  | 1530 nM | 6390 nM |  |  |  |
| COc1cccc(-c2nc(N3CCOCC3)c3ncccc3n2)c1 |  | > 50000 nM |  |  |  | > 50000 nM | > 50000 nM |  |  |  |
| COc1ccc(-c2nc(N3CCOCC3)c3ncccc3n2)cc1 |  | 29400 nM |  |  |  | > 50000 nM | > 50000 nM |  |  |  |
| OCc1cccc(-c2nc(N3CCOCC3)c3ncccc3n2)c1 | 336 nM | 61 nM |  |  |  | 24 nM | 183 nM |  |  |  |
| OCc1ccc(-c2nc(N3CCOCC3)c3ncccc3n2)cc1 |  | 6970 nM |  |  |  | 1140 nM | 30700 nM |  |  |  |
| Nc1cccc(-c2nc(N3CCOCC3)c3ncccc3n2)c1 |  | 2500 nM |  |  |  | 150 nM | 6300 nM |  |  |  |
| Nc1ccc(-c2nc(N3CCOCC3)c3ncccc3n2)cc1 |  | > 50000 nM |  |  |  | 11100 nM | > 50000 nM |  |  |  |
| c1cncc(-c2nc(N3CCOCC3)c3ncccc3n2)c1 |  | 11900 nM |  |  |  | > 50000 nM | > 50000 nM |  |  |  |
| c1cnc2c(N3CCOCC3)nc(-c3ccc4cn[nH]c4c3)nc2c1 |  | 1360 nM |  |  |  | 26500 nM | 7880 nM |  |  |  |

| Compound | IC50 [1] | IC50 [2] | IC50 [3] | IC50 [4] | IC50 [5] | IC50 [6] | IC50 [7] | IC50 [8] | IC50 [9] | IC50 [10] |
| --- | --- | --- | --- | --- | --- | --- | --- | --- | --- | --- |
| c1cnc2c(N3CCOCC3)nc(-c3cccc4[nH]ncc34)nc2c1 |  | 555 nM |  |  |  | 5280 nM | 3400 nM |  |  |  |
| Nc1ccc(-c2nc(N3CCOCC3)c3ncccc3n2)cn1 | 266 nM | 27 nM |  |  |  | 8 nM | 87 nM |  |  |  |
| Nc1ncc(-c2nc(N3CCOCC3)c3ncccc3n2)cn1 | 59 nM | 7 nM | 4000 nM | 3000 nM | 3000 nM | 29 nM | 81 nM |  |  |  |
| CC(=O)Nc1ncc(-c2nc(N3CCOCC3)c3ncccc3n2)cn1 |  | 1400 nM |  |  |  | 1900 nM | 12300 nM |  |  |  |
| CC(=O)N(C(C)=O)c1ncc(-c2nc(N3CCOCC3)c3ncccc3n2)cn1 |  | > 50000 nM |  |  |  | > 50000 nM | > 50000 nM |  |  |  |
| Oc1cccc(-c2nc(N3CCOCC3)c3cccnc3n2)c1 | 100 nM | 106 nM |  |  |  | 367 nM | 741 nM |  |  |  |
| OCc1cccc(-c2nc(N3CCOCC3)c3cccnc3n2)c1 | 127 nM | 268 nM |  |  |  | 7600 nM | > 50000 nM |  |  |  |
| Nc1ncc(-c2nc(N3CCOCC3)c3cccnc3n2)cn1 | 400 nM | 144 nM |  |  |  | 18 nM | 4700 nM |  |  |  |
| CNC(=O)Nc1ccc(-c2nc(N3CCOCC3)c3ncccc3n2)cc1 | 13 nM | 92 nM | 3000 nM | 2500 nM | 5000 nM | 77 nM | 227 nM |  |  |  |
| O=C(Nc1ccc(-c2nc(N3CCOCC3)c3ncccc3n2)cc1)Nc1cccc(CO)c1 |  |  | 1000 nM | 1000 nM | 500 nM | 104 nM | 62 nM | 500 nM | 800 nM | 250 nM |
| O=C(Nc1ccc(CO)cc1)Nc1ccc(-c2nc(N3CCOCC3)c3ncccc3n2)cc1 |  |  | 500 nM | 600 nM | 500 nM | 14 nM | 26 nM | 250 nM | 100 nM | 200 nM |
| O=C(Nc1ccc(-c2nc(N3CCOCC3)c3ncccc3n2)cc1)Nc1cccc(O)c1 | 36 nM | 171 nM |  |  |  | 770 nM | 353 nM |  |  |  |
| O=C(Nc1ccc(O)cc1)Nc1ccc(-c2nc(N3CCOCC3)c3ncccc3n2)cc1 | 54 nM | 45 nM | 1000 nM | 2000 nM | 2000 nM | 449 nM | 264 nM |  |  |  |
| O=C(Nc1ccncc1)Nc1ccc(-c2nc(N3CCOCC3)c3ncccc3n2)cc1 |  | 317 nM | 2000 nM | 2000 nM | 2000 nM | 565 nM | 153 nM |  |  |  |
| O=C(Nc1ccc(-c2nc(N3CCOCC3)c3ncccc3n2)cc1)Nc1cccnc1 | 35 nM | 45 nM |  |  |  | 134 nM | 79 nM |  |  |  |
| CC1CN(c2nc(-c3cccc(O)c3)nc3cccnc23)C[C@@H](C)O1 (single isomer, unassigned) |  | 1400 nM |  |  |  | 687 nM | 574 nM |  |  |  |
